Patent publication US8759535B2, “Substituted fused imidazole derivatives, pharmaceutical compositions, and methods of use thereof” (High Point Pharmaceuticals, LLC, priority 2010, dated 2014)

What follows are compounds tested on HMOX1 (assay: HMOX1 Protein Assay (immunostaining of HO-1 in NHLF cells, GE InCell 1000)). Conditions: Homo sapiens, fold change above DMSO treated cells, 5 μM compound, 16 h.
Type: cell-based
Protocol: Cell Culture. Normal Human Fibroblast (NHLF), were obtained from Lonza. Cultures of cells were maintained in Fibroblast Growth Medium (FGM-2) medium supplemented with 2% fetal bovine serum (FBS), Fibroblast Growth Factor (hFGF-B) 0.5 mL, Insulin 0.5 mL, gentamicin/amphotericin-B 0.5 mL at 37° C. in a humidified atmosphere of 5% CO2. Cells were grown to 80% confluence before treating.
HMOX1 Protein Assay. NHLF cells were grown to 80% confluency and harvested by washing once with HEPES and then trypsinized. Equal numbers (2×10^3 cells per well) of NHLF cells were plated in 384 well optilux tissue culture (BD) plates. Cells were incubated overnight in FGM-2 medium prior to exposure to compound. Cells were treated with either vehicle (DMSO) or compound (dissolved in vehicle) for 16 h. Cells were washed 2× with 1×PBS and fixed with 4% Paraformaldyhyde for 15 min. The fixed cells were then permeabalized with 0.1% Triton X-100 and blocked with 5% BSA in 1×PBS 0.05% Tween-20 for 15 min. HO-1 antibody (abcam) was used for immunostaining at 1:300 dilution in 1% BSA in 1×PBS for 1 hour. Cells were washed 2× with 1×PBS and secondary antibody goat anti-mouse Alexa 488 1:400 dilution (Invitrogen); Hoechst 1:2000 (Invitrogen) in 1% BSA in 1×PBS for 1 hour. Plate was washed 5× with 1×PBS and read at Hoechst Ex.360 […]; Alexa 488 Ex.480 Em. 535 using GE InCell 1000. Results analyzed using GE InCell Analyzer software. Heme oxygenase data represents the fold change above DMSO treated cells.
In general, the fold induction data are reported for 5 μM concentration (i.e., μ-moles of compound to total volume, where the solvent is about 99.2% media and 0.8% DMSO). In some instances, the reported data are for 3 μM concentration, which are indicated by an asterisk (*).

| Structure (SMILES) | fold induction at 5 µM |
| --- | --- |
| CN(C)C(=O)CNC(=O)c1cc2nc(Nc3nc4ccc(OC(F)(F)F)cc4s3)n(C)c2cc1F [Example 58, 6-Fluoro-1-methyl-2-(6-trifluoromethoxy-benzothiazol-2-ylamino)-1H-benzoimidazole-5-carboxylic acid dimethylcarbamoylmethyl-amide] | 32.8 |
| Cn1c(Nc2nc3ccc(OC(F)(F)F)cc3s2)nc2cc(C(=O)NCCN3CCOCC3)c(F)cc21 [Example 59, 6-Fluoro-1-methyl-2-(6-trifluoromethoxy-benzothiazol-2-ylamino)-1H-benzoimidazole-5-carboxylic acid (2-morpholin-4-yl-ethyl)-amide] | 49.8 |
| CC(O)CNC(=O)c1cc2nc(Nc3nc4ccc(OC(F)(F)F)cc4s3)n(C)c2cc1F (stereo not shown) [Example 60, 6-Fluoro-1-methyl-2-(6-trifluoromethoxy-benzothiazol-2-ylamino)-1H-benzoimidazole-5-carboxylic acid (2-hydroxy-propyl)-amide] | 39.8 |
| COC(=O)c1cc2nc(Nc3nc4ccc(OC(F)(F)F)cc4s3)n(C)c2cc1OC [Example 61, 6-Methoxy-1-methyl-2-(6-trifluoromethoxy-benzothiazol-2-ylamino)-1H-benzoimidazole-5-carboxylic acid methyl ester] | 12.1 |
| COc1cc2c(cc1C(=O)O)nc(Nc1nc3ccc(OC(F)(F)F)cc3s1)n2C [Example 62, 6-Methoxy-1-methyl-2-(6-trifluoromethoxy-benzothiazol-2-ylamino)-1H-benzoimidazole-5-carboxylic acid] | 20.3 |
| COc1cc2c(cc1C(=O)NCC(=O)N(C)C)nc(Nc1nc3ccc(OC(F)(F)F)cc3s1)n2C [Example 63, 6-Methoxy-1-methyl-2-(6-trifluoromethoxy-benzothiazol-2-ylamino)-1H-benzoimidazole-5-carboxylic acid dimethylcarbamoylmethyl-amide] | 9.8 |
| CCNC(=O)c1cc2nc(Nc3nc4ccc(OC(F)(F)F)cc4s3)n(C)c2cc1OC [Example 64, 6-Methoxy-1-methyl-2-(6-trifluoromethoxy-benzothiazol-2-ylamino)-1H-benzoimidazole-5-carboxylic acid ethylamide] | 18.9 |
| CCOCCNC(=O)c1cc2nc(Nc3nc4ccc(OC(F)(F)F)cc4s3)n(C)c2cc1OC [Example 65, 6-Methoxy-1-methyl-2-(6-trifluoromethoxy-benzothiazol-2-ylamino)-1H-benzoimidazole-5-carboxylic acid (2-ethoxy-ethyl)-amide] | 10.2 |
| COc1cc2c(cc1C(=O)NCCN1CCOCC1)nc(Nc1nc3ccc(OC(F)(F)F)cc3s1)n2C [Example 66, 6-Methoxy-1-methyl-2-(6-trifluoromethoxy-benzothiazol-2-ylamino)-1H-benzoimidazole-5-carboxylic acid (2-morpholin-4-yl-ethyl)-amide] | 20.8 |
| COCCNC(=O)c1cc2nc(Nc3nc4ccc(OC(F)(F)F)cc4s3)n(C)c2cc1OC [Example 67, 6-Methoxy-1-methyl-2-(6-trifluoromethoxy-benzothiazol-2-ylamino)-1H-benzoimidazole-5-carboxylic acid (2-methoxy-ethyl)-amide] | 18.7 |
| COc1cc2c(cc1C(=O)NCC(C)O)nc(Nc1nc3ccc(OC(F)(F)F)cc3s1)n2C (stereo not shown) [Example 68, 6-Methoxy-1-methyl-2-(6-trifluoromethoxy-benzothiazol-2-ylamino)-1H-benzoimidazole-5-carboxylic acid (2-hydroxy-propyl)-amide] | 21.1 |
| CCN(CC)c1cc2c(cc1C(=O)OC)nc(Nc1nc3ccc(OC(F)(F)F)cc3s1)n2C [Example 69, 6-Diethylamino-1-methyl-2-(6-trifluoromethoxy-benzothiazol-2-ylamino)-1H-benzoimidazole-5-carboxylic acid methyl ester] | 4.7 |
| CCN(CC)c1cc2c(cc1C(=O)O)nc(Nc1nc3ccc(OC(F)(F)F)cc3s1)n2C [Example 70, 6-Diethylamino-1-methyl-2-(6-trifluoromethoxy-benzothiazol-2-ylamino)-1H-benzoimidazole-5-carboxylic acid] | 21.4 |
| CCOC(=O)c1cnc2c(c1)nc(Nc1nc3ccc(OC(F)(F)F)cc3s1)n2C [Example 71, 3-Methyl-2-(6-trifluoromethoxy-benzothiazol-2-ylamino)-3H-imidazo[4,5-b]pyridine-6-carboxylic acid ethyl ester] | 4.2 |
| Cn1c(Nc2nc3ccc(OC(F)(F)F)cc3s2)nc2cc(C(=O)O)cnc21 [Example 72, 3-Methyl-2-(6-trifluoromethoxy-benzothiazol-2-ylamino)-3H-imidazo[4,5-b]pyridine-6-carboxylic acid] | 11.9 |
| COCCNC(=O)c1cnc2c(c1)nc(Nc1nc3ccc(OC(F)(F)F)cc3s1)n2C [Example 73, 3-Methyl-2-(6-trifluoromethoxy-benzothiazol-2-ylamino)-3H-imidazo[4,5-b]pyridine-6-carboxylic acid (2-methoxy-ethyl)-amide] | 20.6 |
| CN(C)C(=O)CNC(=O)c1cnc2c(c1)nc(Nc1nc3ccc(OC(F)(F)F)cc3s1)n2C [Example 74, 3-Methyl-2-(6-trifluoromethoxy-benzothiazol-2-ylamino)-3H-imidazo[4,5-b]pyridine-6-carboxylic acid dimethylcarbamoylmethyl-amide] | 11.1 |
| CCOCCNC(=O)c1cnc2c(c1)nc(Nc1nc3ccc(OC(F)(F)F)cc3s1)n2C [Example 75, 3-Methyl-2-(6-trifluoromethoxy-benzothiazol-2-ylamino)-3H-imidazo[-4,5-b]pyridine-6-carboxylic acid (2-ethoxy-ethyl)-amide] | 29 |
| CCNC(=O)c1cnc2c(c1)nc(Nc1nc3ccc(OC(F)(F)F)cc3s1)n2C [Example 76, 3-Methyl-2-(6-trifluoromethoxy-benzothiazol-2-ylamino)-3H-imidazo[4,5-b]pyridine-6-carboxylic acid ethylamide] | 22.5 |
| Cn1c(Nc2nc3ccc(OC(F)(F)F)cc3s2)nc2cc(C(=O)NCCN3CCOCC3)cnc21 [Example 77, 3-Methyl-2-(6-trifluoromethoxy-benzothiazol-2-ylamino)-3H-imidazo[4,5-b]pyridine-6-carboxylic acid (2-morpholin-4-yl-ethyl)-amide] | 31.4 |
| CC(O)CNC(=O)c1cnc2c(c1)nc(Nc1nc3ccc(OC(F)(F)F)cc3s1)n2C (stereo not shown) [Example 78, 3-Methyl-2-(6-trifluoromethoxy-benzothiazol-2-ylamino)-3H-imidazo[4,5-b]pyridine-6-carboxylic acid (2-hydroxy-propyl)-amide] | 28.6 |
| COC(=O)CNC(=O)c1ccc2c(c1)nc(Nc1nc3ccc(OC(F)(F)F)cc3s1)n2C [Example 79, {[1-Methyl-2-(6-trifluoromethoxy-benzothiazol-2-ylamino)-1H-benzoimidazole-5-carbonyl]-amino}-acetic acid methyl ester] | 17.6 |
| CN(C)C(=O)CNC(=O)c1ccc2c(c1)nc(Nc1nc3ccc(OC(F)(F)F)cc3s1)n2C [Example 80, 1-Methyl-2-(6-trifluoromethoxy-benzothiazol-2-ylamino)-1H-benzoimidazole-5-carboxylic acid dimethylcarbamoylmethyl-amide] | 23.2 |
| CCNC(=O)[C@H](C)NC(=O)c1ccc2c(c1)nc(Nc1nc3ccc(OC(F)(F)F)cc3s1)n2C [Example 81, 1-Methyl-2-(6-trifluoromethoxy-benzothiazol-2-ylamino)-1H-benzoimidazole-5-carboxylic acid ((S)-1-ethylcarbamoyl-ethyl)-amide] | 17 |
| CN(C)CCNC(=O)c1ccc2c(c1)nc(Nc1nc3ccc(OC(F)(F)F)cc3s1)n2C [Example 82, 1-Methyl-2-(6-trifluoromethoxy-benzothiazol-2-ylamino)-1H-benzoimidazole-5-carboxylic acid (2-dimethylamino-ethyl)-amide] | 17 |
| Cn1c(Nc2nc3ccc(OC(F)(F)F)cc3s2)nc2cc(C(=O)NCC(=O)O)ccc21 [Example 83, {[1-Methyl-2-(6-trifluoromethoxy-benzothiazol-2-ylamino)-1H-benzoimidazole-5-carbonyl]-amino}-acetic acid] | 1.25 |
| CNC(=O)c1ccc2c(c1)nc(Nc1nc3ccc(C(F)(F)F)cc3s1)n2C [Example 84, 1-Methyl-2-(6-trifluoromethyl-benzothiazol-2-ylamino)-1H-benzoimidazole-5-carboxylic acid methylamide] | 19 |
| CCOCCNC(=O)c1ccc2c(c1)nc(Nc1nc3ccc(C(F)(F)F)cc3s1)n2C [Example 85, 1-Methyl-2-(6-trifluoromethyl-benzothiazol-2-ylamino)-1H-benzoimidazole-5-carboxylic acid (2-ethoxy-ethyl)-amide] | 11.6 |
